DBAASP
≈ marks a conversion by molar mass, not a printed value. Where “and” joins values, the source holds several entries; their conditions need not be identical. Equal entries are not always repeated. One block for each compound: values may come before it.

Tests used:
Test in all cases: ≥ marks a high value that may be exact or a test limit, other limits are often not marked, values filed in µg/mL are converted to µM
[1] = test system: Escherichia coli K-12
[2] = test system: Acinetobacter baumannii
[3] = test system: Candida albicans ATCC 90028
[4] = test system: Escherichia coli ATCC 25726
[5] = test system: Staphylococcus aureus ATCC 25923
[6] = test system: Staphylococcus aureus
[7] = test system: Pseudomonas aeruginosa
[8] = test system: Candida albicans F7-39/IDE99
[9] = test system: Escherichia coli B
[10] = test system: Micrococcus luteus CCM 144
[11] = test system: Bacillus subtilis 168
[12] = test system: Streptococcus mutans
[13] = test system: Enterococcus faecalis
[14] = test system: Pseudomonas aeruginosa ATCC 27853
[15] = test system: Escherichia coli BW25113
[16] = test system: Enterococcus faecium

Compound: CC[C@H](C)[C@H](NC(=O)[C@H](CCCN=C(N)N)NC(=O)[C@H](CCC(N)=O)NC(=O)[C@@H](NC(=O)[C@@H](NC(=O)[C@H](CCC(N)=O)NC(=O)[C@H](C)N)[C@@H](C)CC)C(C)C)C(=O)N[C@@H](CCCCN)C(=O)N[C@@H](CC(=O)O)C(=O)N[C@@H](Cc1ccccc1)C(=O)N[C@@H](CC(C)C)C(=O)N[C@@H](CCCN=C(N)N)C(N)=O [AQIVQRIKDFLR]
MIC [1]: ≥ 240 µM

Compound: CC[C@H](C)[C@H](NC(=O)CN)C(=O)N[C@@H](Cc1c[nH]c2ccccc12)C(=O)N[C@@H](CC(=O)O)C(=O)N[C@H](C(=O)N[C@H](C(=O)N[C@@H](CCCCN)C(=O)N[C@@H](CO)C(=O)N[C@@H](CCSC)C(=O)NCC(=O)N[C@@H](CCCCN)C(=O)N[C@H](C(=O)N[C@@H](Cc1ccccc1)C(=O)N[C@@H](C)C(=O)NCC(=O)N[C@@H](CC(C)C)C(=O)N[C@H](C(=O)N[C@@H](CC(C)C)C(=O)N[C@@H](CCC(N)=O)C(=O)N[C@@H](CC(N)=O)C(=O)N[C@@H](CC(C)C)C(N)=O)[C@@H](C)CC)C(C)C)[C@@H](C)CC)[C@@H](C)O [GIWDTIKSMGKVFAGLILQNL]
MIC [2]: 25 µM (≈ 57.6 µg/mL) | MIC [3]: 12.5 µM (≈ 28.8 µg/mL) | MIC [4]: ≥ 100 µM | MIC [5]: 25 µM (≈ 57.6 µg/mL)

Compound: CC[C@H](C)[C@H](NC(=O)[C@H](CC(C)C)NC(=O)[C@H](CCCCN)NC(=O)[C@@H](NC(=O)[C@@H](NC(=O)[C@H](Cc1cnc[nH]1)NC(=O)[C@@H]1CCCN1C(=O)[C@H](CC(C)C)NC(=O)[C@@H](NC(=O)[C@H](CCCCN)NC(=O)[C@H](C)NC(=O)[C@H](CC(C)C)NC(=O)[C@H](CC(C)C)NC(=O)[C@H](CO)NC(=O)[C@H](C)NC(=O)[C@H](CCSC)NC(=O)CN)C(C)C)C(C)C)C(C)C)C(=O)N[C@@H](CCCCN)C(N)=O [GMASLLAKVLPHVVKLIK]
MIC [6]: 3.7 µM (≈ 7.09 µg/mL) | MIC [7]: 31.7 µM (≈ 60.8 µg/mL) | MIC [8]: 25 µM (≈ 47.9 µg/mL) | MIC [9]: 3.7 µM (≈ 7.09 µg/mL) | MIC [10]: 1.7 µM (≈ 3.26 µg/mL) | MIC [11]: 2.5 µM (≈ 4.79 µg/mL)

Compound: CC[C@H](C)[C@H](NC(=O)[C@H](CCCCN)NC(=O)[C@H](CO)NC(=O)[C@H](C)NC(=O)[C@H](Cc1c[nH]c2ccccc12)NC(=O)CN)C(=O)NCC(=O)N[C@@H](CCC(N)=O)C(=O)N[C@H](C(=O)N[C@@H](CC(C)C)C(=O)NCC(=O)N[C@@H](CCCCN)C(=O)N[C@@H](CCSC)C(=O)N[C@@H](C)C(=O)N[C@@H](CCCCN)C(=O)N[C@H](C(=O)NCC(=O)N[C@@H](CC(C)C)C(=O)N[C@@H](CCC(N)=O)C(=O)N[C@@H](CCC(=O)O)C(=O)N[C@@H](CC(C)C)C(=O)N[C@H](C(=O)N[C@@H](CCC(N)=O)C(=O)N1CCC[C@H]1C(=O)N[C@@H](CCCCN)C(=O)O)[C@@H](C)CC)C(C)C)[C@@H](C)O [GWASKIGQTLGKMAKVGLQELIQPK]
MIC [4]: ≥ 50 µM | MIC [5]: 50 µM (≈ 134 µg/mL)

Compound: CC[C@H](C)[C@H](N)C(=O)NCC(=O)N[C@@H](CC(C)C)C(=O)N[C@@H](CCCN=C(N)N)C(=O)NCC(=O)N[C@@H](CC(C)C)C(=O)NCC(=O)N[C@@H](CCCN=C(N)N)C(=O)N[C@@H](CCCCN)C(=O)N[C@H](C(=O)N[C@@H](C)C(=O)N[C@@H](CC(C)C)C(=O)N[C@H](C(=O)N[C@@H](Cc1cnc[nH]1)C(=O)N[C@@H](CCCCN)C(=O)N[C@@H](CCCCN)C(=O)N[C@@H](Cc1ccc(O)cc1)C(=O)NCC(=O)O)[C@@H](C)CC)[C@@H](C)CC [IGLRGLGRKIALIHKKYG]
MIC [1]: ≥ 120 µM | MIC [11]: ≥ 120 µM

Compound: CC(C)C[C@H](NC(=O)[C@H](CC(C)C)NC(=O)[C@H](CCCCN)NC(=O)[C@H](CCCCN)NC(=O)[C@H](CC(C)C)NC(=O)[C@@H](N)CCCCN)C(=O)N[C@@H](CCCCN)C(=O)N[C@@H](CCCN=C(N)N)C(=O)N[C@@H](Cc1c[nH]c2ccccc12)C(=O)N[C@@H](CCCN=C(N)N)C(=O)N[C@@H](CCCN=C(N)N)C(=O)N[C@@H](Cc1c[nH]c2ccccc12)C(=O)N[C@@H](Cc1c[nH]c2ccccc12)C(=O)N[C@@H](CCCN=C(N)N)C(=O)O [KLKKLLKRWRRWWR]
MIC [12]: 3.9 µM (≈ 8 µg/mL)

Compound: CC[C@H](C)[C@H](NC(=O)[C@H](CCCCN)NC(=O)CNC(=O)[C@H](Cc1c[nH]c2ccccc12)NC(=O)[C@H](CC(N)=O)NC(=O)[C@@H](N)CCCCN)C(=O)N[C@@H](CC(C)C)C(=O)N[C@@H](CCCCN)C(=O)N[C@@H](Cc1cnc[nH]1)C(=O)N[C@H](C(=O)N[C@H](C(=O)N[C@@H](CCCCN)C(N)=O)[C@@H](C)CC)[C@@H](C)CC [KNWGKILKHIIK]
MIC [6]: 76.7 µM (≈ 113 µg/mL) | MIC [7]: 31.7 µM (≈ 46.8 µg/mL) | MIC [8]: 7.7 µM (≈ 11.4 µg/mL) | MIC [9]: 11.3 µM (≈ 16.7 µg/mL) | MIC [10]: 4.5 µM (≈ 6.65 µg/mL) | MIC [11]: 5.8 µM (≈ 8.57 µg/mL)

Compound: CC[C@H](C)[C@@H]1NC(=O)[C@H](CCCCN)NC(=O)[C@H](CCCCN)NC(=O)[C@@H]2CSSC[C@H](NC(=O)[C@H](C)NC(=O)[C@H](C(C)C)NC(=O)[C@@H](NC(=O)[C@@H](NC(=O)[C@@H](NC(=O)[C@H](CCCCN)NC(=O)[C@H](CCCCN)NC(=O)[C@@H](NC(=O)[C@H](CC(=O)O)NC(=O)[C@@H](N)CC(C)C)C(C)C)[C@@H](C)CC)[C@@H](C)CC)CSSC[C@@H](C(=O)N3CCC[C@H]3C(=O)N[C@@H](CCCCN)C(=O)O)NC1=O)C(=O)N[C@@H](CCCCN)C(=O)N[C@@H]([C@@H](C)CC)C(=O)N[C@@H](CCCN=C(N)N)C(=O)N1CCC[C@H]1C(=O)N[C@@H](CC(N)=O)C(=O)N1CCC[C@H]1C(=O)N[C@@H](C)C(=O)N2 [LDVKKIICVACKIRPNPACKKICPK]
MIC [6]: > 100 µM | MIC [7]: > 100 µM | MIC [8]: 18.7 µM (≈ 52 µg/mL) | MIC [9]: ≥ 32.5 µM | MIC [10]: 0.8 µM (≈ 2.22 µg/mL) | MIC [11]: 1.5 µM (≈ 4.17 µg/mL)

Compound: CC[C@H](C)[C@H](NC(=O)[C@H](C)NC(=O)[C@H](CCCCN)NC(=O)[C@H](CC(C)C)NC(=O)[C@H](CCCCN)NC(=O)[C@@H](N)CC(C)C)C(=O)N[C@@H](C)C(=O)N[C@@H](C)C(=O)N[C@@H](CC(C)C)C(=O)N[C@@H](C)C(=O)N[C@@H](CCCCN)C(=O)N[C@@H](CCCCN)C(=O)N[C@@H](CCCCN)C(=O)N[C@@H](Cc1c[nH]c2ccccc12)C(N)=O [LKLKAIAALAKKKW]
MIC [2]: 5.06 µM (≈ 8 µg/mL) | MIC [6]: 15.2 µM (≈ 24 µg/mL) | MIC [13]: 7.59 µM (≈ 12 µg/mL) | MIC [7]: 10.1 µM (≈ 16 µg/mL) | MIC [14]: 40.5 µM and > 20.2 µM

Results, then the compound that gave them:

MIC [15]: 4 µM (≈ 8.89 µg/mL)
Compound: CC[C@H](C)[C@H](NC(=O)[C@@H]1CCCN1C(=O)[C@H](CCCN=C(N)N)NC(=O)[C@H](CCCN=C(N)N)NC(=O)[C@H](Cc1ccccc1)NC(=O)[C@@H](N)CCCN=C(N)N)C(=O)N[C@@H](CCCN=C(N)N)C(=O)N[C@@H](CCCN=C(N)N)C(=O)N1CCC[C@H]1C(=O)N1CCC[C@H]1C(=O)N[C@H](C(=O)N[C@@H](CCCN=C(N)N)C(=O)N1CCC[C@H]1C(=O)N1CCC[C@H]1C(=O)N[C@@H](Cc1ccccc1)C(=O)N[C@@H](Cc1ccc(O)cc1)C(=O)N1CCC[C@H]1C(=O)O)[C@@H](C)CC [RFRRPIRRPPIRPPFYP]

MIC [15]: 8 µM (≈ 19 µg/mL)
Compound: CC[C@H](C)[C@H](NC(=O)[C@@H]1CCCN1C(=O)[C@H](Cc1c[nH]c2ccccc12)NC(=O)[C@H](CCCN=C(N)N)NC(=O)[C@H](Cc1ccccc1)NC(=O)[C@@H](N)CCCN=C(N)N)C(=O)N[C@@H](CCCN=C(N)N)C(=O)N[C@@H](CCCN=C(N)N)C(=O)N[C@@H](CCCN=C(N)N)C(=O)N1CCC[C@H]1C(=O)N[C@H](C(=O)N[C@@H](CCCN=C(N)N)C(=O)N1CCC[C@H]1C(=O)N1CCC[C@H]1C(=O)N[C@@H](Cc1ccccc1)C(=O)N[C@@H](Cc1ccc(O)cc1)C(=O)N[C@@H](CCCN=C(N)N)C(=O)O)[C@@H](C)CC [RFRWPIRRRPIRPPFYR]

MIC [13]: 23.5 µM (≈ 35.4 µg/mL) | MIC [16]: 23.5 µM (≈ 35.4 µg/mL)
Compound: CC(C)C[C@H](NC(=O)[C@H](CC(C)C)NC(=O)[C@H](CC(C)C)NC(=O)[C@H](CC(C)C)NC(=O)[C@H](CC(C)C)NC(=O)[C@H](CCCN=C(N)N)NC(=O)[C@H](Cc1c[nH]c2ccccc12)NC(=O)[C@@H](N)CCCN=C(N)N)C(=O)N[C@@H](CCCCN)C(=O)N[C@@H](CCCN=C(N)N)C(=O)N[C@@H](Cc1cnc[nH]1)C(=O)O [RWRLLLLLKRH]

MIC [15]: 8 µM (≈ 19.6 µg/mL)
Compound: CC[C@H](C)[C@H](NC(=O)[C@@H]1CCCN1C(=O)[C@H](CCCN=C(N)N)NC(=O)[C@H](CCCN=C(N)N)NC(=O)[C@H](CCCN=C(N)N)NC(=O)[C@H](Cc1c[nH]c2ccccc12)NC(=O)[C@@H]1CCCN1C(=O)[C@H](CCCN=C(N)N)NC(=O)[C@H](CCCN=C(N)N)NC(=O)[C@H](Cc1c[nH]c2ccccc12)NC(=O)[C@@H](N)CCCN=C(N)N)C(=O)N[C@@H](CCCN=C(N)N)C(=O)N1CCC[C@H]1C(=O)N1CCC[C@H]1C(=O)N[C@@H](Cc1ccccc1)C(=O)N[C@@H](Cc1ccc(O)cc1)C(=O)N[C@@H](CCCN=C(N)N)C(=O)O [RWRRPWRRRPIRPPFYR]

MIC [15]: 4 µM (≈ 9.73 µg/mL)
Compound: CC[C@H](C)[C@H](NC(=O)[C@@H]1CCCN1C(=O)[C@H](Cc1c[nH]c2ccccc12)NC(=O)[C@H](CCCN=C(N)N)NC(=O)[C@H](Cc1c[nH]c2ccccc12)NC(=O)[C@@H](N)CCCN=C(N)N)C(=O)N[C@@H](CCCN=C(N)N)C(=O)N[C@@H](CCCN=C(N)N)C(=O)N[C@@H](CCCN=C(N)N)C(=O)N1CCC[C@H]1C(=O)N[C@H](C(=O)N[C@@H](CCCN=C(N)N)C(=O)N1CCC[C@H]1C(=O)N1CCC[C@H]1C(=O)N[C@@H](Cc1ccccc1)C(=O)N[C@@H](Cc1c[nH]c2ccccc12)C(=O)N[C@@H](CCCN=C(N)N)C(=O)O)[C@@H](C)CC [RWRWPIRRRPIRPPFWR]
